From article PMC4349456, “Automated genomic context analysis and experimental validation platform for discovery of prokaryote transcriptional regulator functions” (BMC Genomics, 2014)

Molecular target: T1, Bxe_B3018 (MgxR)
T1 construct: GST-tagged (N-terminal, pGEX-KG / pGEX-T2), tag kept; expressed in Arctic Express cells; GSTrap and Superdex 200 purified
Experiment: fluorescence anisotropy, collapse of complex with fluorescein-labelled DNA operator
Set-up: species or system Paraburkholderia xenovorans
Settings: apparent, from loss of DNA operator binding; 250 nM GST-Bxe_B3018, 1 nM DOS; pH 7.5, 30 °C, 1 mM MgCl2, 1 mM DTT

SMILES	Kd [µM]
CC(=O)CN [Aa, aminoacetone]	2100 ± 400
CC(=O)C=O [Mgx, methylglyoxal]	2100 ± 200
CC(=O)CN(C)C [N,N-dimethylaminoacetone]	2600 ± 200
